Measurements taken from ChEMBL document CHEMBL5528027, “Target identification, and optimization of dioxygenated amide derivatives as potent antibacterial agents with FabH inhibitory activity” (Eur J Med Chem, 2024).
pIC50: −log10 of the molar value. Converted amounts (≈) assume the structure as drawn.

Legend:
Streptococcus pneumoniae = test: Antibacterial activity against Streptococcus pneumoniae assessed as reduction in bacterial growth measured after 24 hrs by two-fold serial dilution method; format: functional
Staphylococcus aureus = test: Antibacterial activity against Staphylococcus aureus assessed as reduction in bacterial growth measured after 24 hrs by two-fold serial dilution method; format: functional
[1] = Cytotoxicity against mouse NIH3T3 cells incubated for 24 hrs by MTT analysis; format: toxicity, cell-based
[2] = target: T1, Beta-ketoacyl-[acyl-carrier-protein] synthase III (Escherichia coli K-12, UniProt P0A6R0); test: Inhibition of Escherichia coli FabH
T1 sequence (P0A6R0 whole entry): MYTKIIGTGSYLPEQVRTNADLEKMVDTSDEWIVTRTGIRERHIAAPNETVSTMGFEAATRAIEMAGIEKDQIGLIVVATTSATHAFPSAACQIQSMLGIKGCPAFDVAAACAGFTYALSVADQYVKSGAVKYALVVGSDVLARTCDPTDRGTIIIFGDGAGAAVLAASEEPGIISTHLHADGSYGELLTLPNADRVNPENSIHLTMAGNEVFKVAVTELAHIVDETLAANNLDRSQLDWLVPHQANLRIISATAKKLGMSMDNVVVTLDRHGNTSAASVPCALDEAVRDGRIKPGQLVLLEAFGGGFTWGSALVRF

Escherichia coli = test: Antibacterial activity against Escherichia coli assessed as reduction in bacterial growth measured after 24 hrs by two-fold serial dilution method; format: functional
Pseudomonas aeruginosa = test: Antibacterial activity against Pseudomonas aeruginosa assessed as reduction in bacterial growth measured after 24 hrs by two-fold serial dilution method; format: functional
Klebsiella pneumoniae = test: Antibacterial activity against Klebsiella pneumoniae assessed as reduction in bacterial growth measured after 24 hrs by two-fold serial dilution method; format: functional
Bacillus subtilis = test: Antibacterial activity against Bacillus subtilis assessed as reduction in bacterial growth measured after 24 hrs by two-fold serial dilution method; format: functional
Erythrocyte = test: Hemolytic activity in human erythrocytes assessed as hemolysis by spectrophotometric analysis; format: toxicity, cell-based

Row | SMILES | MIC (Streptococcus pneumoniae) [µg/mL] | MIC (Staphylococcus aureus) [µg/mL] | IC50 at 24 h [1] [µM] | pIC50 [2] | MIC (Escherichia coli) [µg/mL] | MIC (Pseudomonas aeruginosa) [µg/mL] | MIC (Klebsiella pneumoniae) [µg/mL] | MIC (Bacillus subtilis) [µg/mL] | HC30 (Erythrocyte) [µg/mL]
1 | O=C(Nc1ccc(C(F)(F)F)cn1)c1ccc2c(c1)OCCCO2 | 25 (≈ 73.9 µM) | 50 (≈ 148 µM) | 204 | 5.07 | 3.13 (≈ 9.25 µM) | 6.25 (≈ 18.5 µM) | 6.25 (≈ 18.5 µM) | > 100 | > 10
2 | O=C(Nc1cccnc1)c1ccc2c(c1)OCCCO2 | 50 (≈ 185 µM) | 50 (≈ 185 µM) | – | – | 25 (≈ 92.5 µM) | 50 (≈ 185 µM) | 25 (≈ 92.5 µM) | > 100 | –
3 | O=C(Nc1ccnc2ccccc12)c1ccc2c(c1)OCCCO2 | 50 (≈ 156 µM) | 25 (≈ 78 µM) | – | – | 50 (≈ 156 µM) | 50 (≈ 156 µM) | 50 (≈ 156 µM) | 50 (≈ 156 µM) | –
4 | Cc1ccc(NC(=O)c2ccc3c(c2)OCCCO3)cn1 | > 100 | 50 (≈ 176 µM) | – | – | 25 (≈ 87.9 µM) | 50 (≈ 176 µM) | > 100 | > 100 | –
5 | NC[C@H]1O[C@H](O[C@H]2[C@H](O)[C@@H](O[C@H]3O[C@H](CO)[C@@H](O)[C@H](N)[C@H]3O)[C@H](N)C[C@@H]2N)[C@H](N)[C@@H](O)[C@@H]1O [BEKANAMYCIN] | 50 (≈ 103 µM) | 1.56 (≈ 3.23 µM) | – | – | 3.13 (≈ 6.47 µM) | 3.13 (≈ 6.47 µM) | 3.13 (≈ 6.47 µM) | 1.56 (≈ 3.23 µM) | –
6 | O=C(c1ccc2c(c1)OCCCO2)N1CCN(CCO)CC1 | 25 (≈ 81.6 µM) | 25 (≈ 81.6 µM) | – | – | 50 (≈ 163 µM) | 25 (≈ 81.6 µM) | > 100 | > 100 | –
7 | O=C(c1ccc2c(c1)OCCCO2)N1CCCCC1 | 25 (≈ 95.7 µM) | 25 (≈ 95.7 µM) | – | – | 25 (≈ 95.7 µM) | 25 (≈ 95.7 µM) | 25 (≈ 95.7 µM) | 12.5 (≈ 47.8 µM) | –
8 | CN1CCN(C(=O)c2ccc3c(c2)OCCCO3)CC1 | 12.5 (≈ 45.2 µM) | 3.13 (≈ 11.3 µM) | 175 | 4.42 | 6.25 (≈ 22.6 µM) | 3.13 (≈ 11.3 µM) | 6.25 (≈ 22.6 µM) | 6.25 (≈ 22.6 µM) | > 10
9 | O=C(Nc1cccc2ncccc12)c1ccc2c(c1)OCCCO2 | 25 (≈ 78 µM) | 50 (≈ 156 µM) | – | – | 50 (≈ 156 µM) | 25 (≈ 78 µM) | 25 (≈ 78 µM) | 50 (≈ 156 µM) | –
10 | CC(=O)c1cccnc1NC(=O)c1ccc2c(c1)OCCCO2 | > 100 | 50 (≈ 160 µM) | 128 | 4.33 | 6.25 (≈ 20 µM) | > 100 | 25 (≈ 80 µM) | 50 (≈ 160 µM) | > 10
11 | O=C(c1ccc2c(c1)OCCCO2)N1CCN(Cc2ccccc2)CC1 | 25 (≈ 70.9 µM) | 50 (≈ 142 µM) | – | – | 50 (≈ 142 µM) | 50 (≈ 142 µM) | 25 (≈ 70.9 µM) | > 100 | –
12 | O=C(Nc1cc(Cl)cc2cccnc12)c1ccc2c(c1)OCCCO2 | 12.5 (≈ 35.2 µM) | 3.13 (≈ 8.82 µM) | 115 | 5.31 | 1.56 (≈ 4.4 µM) | 1.56 (≈ 4.4 µM) | 3.13 (≈ 8.82 µM) | 12.5 (≈ 35.2 µM) | > 10
13 | O=C(NCCc1nc2ccccc2[nH]1)c1ccc2c(c1)OCCCO2 | 50 (≈ 148 µM) | > 100 | – | – | 25 (≈ 74.1 µM) | 50 (≈ 148 µM) | > 100 | 25 (≈ 74.1 µM) | –
14 | O=C(Nc1ccccn1)c1ccc2c(c1)OCCCO2 | > 100 | 50 (≈ 185 µM) | – | – | 12.5 (≈ 46.2 µM) | 50 (≈ 185 µM) | 50 (≈ 185 µM) | 25 (≈ 92.5 µM) | –
15 | COc1cc(NC(=O)c2ccc3c(c2)OCCCO3)c2ncccc2c1 | > 100 | 50 (≈ 143 µM) | – | – | 50 (≈ 143 µM) | 50 (≈ 143 µM) | 50 (≈ 143 µM) | > 100 | –
16 | COc1ccc(NC(=O)c2ccc3c(c2)OCCCO3)c2ncccc12 | 50 (≈ 143 µM) | > 100 | – | – | > 100 | 50 (≈ 143 µM) | > 100 | > 100 | –
17 | O=C(c1ccc2c(c1)OCCCO2)N1CCN(C(=O)c2ccc3c(c2)OCCCO3)CC1 | > 100 | > 100 | – | – | > 100 | > 100 | > 100 | 50 (≈ 114 µM) | –
